Assay results taken from US12565475B2, “Small molecule compound inhibiting signal transmission path of TLR7 and TLR9 and use thereof” (AJOU UNIVERSITY INDUSTRY-ACADEMIC COOPERATION FOUNDATION, priority 2019, dated 2026).
Entries after “also recorded” stand apart in the source; their conditions may differ.

Assays:
TLR3 = molecular target: T1, TLR3 (Mus musculus, UniProt Q99MB1); test: TLR3-mediated TNF-α secretion (poly I:C), ELISA; format: cell-based, murine; conditions: RAW 264.7, 10 or 20 μM, poly I:C 24 hours
T1 construct: endogenous in cells; host or cells: RAW 264.7
T1 sequence (Q99MB1 26-905): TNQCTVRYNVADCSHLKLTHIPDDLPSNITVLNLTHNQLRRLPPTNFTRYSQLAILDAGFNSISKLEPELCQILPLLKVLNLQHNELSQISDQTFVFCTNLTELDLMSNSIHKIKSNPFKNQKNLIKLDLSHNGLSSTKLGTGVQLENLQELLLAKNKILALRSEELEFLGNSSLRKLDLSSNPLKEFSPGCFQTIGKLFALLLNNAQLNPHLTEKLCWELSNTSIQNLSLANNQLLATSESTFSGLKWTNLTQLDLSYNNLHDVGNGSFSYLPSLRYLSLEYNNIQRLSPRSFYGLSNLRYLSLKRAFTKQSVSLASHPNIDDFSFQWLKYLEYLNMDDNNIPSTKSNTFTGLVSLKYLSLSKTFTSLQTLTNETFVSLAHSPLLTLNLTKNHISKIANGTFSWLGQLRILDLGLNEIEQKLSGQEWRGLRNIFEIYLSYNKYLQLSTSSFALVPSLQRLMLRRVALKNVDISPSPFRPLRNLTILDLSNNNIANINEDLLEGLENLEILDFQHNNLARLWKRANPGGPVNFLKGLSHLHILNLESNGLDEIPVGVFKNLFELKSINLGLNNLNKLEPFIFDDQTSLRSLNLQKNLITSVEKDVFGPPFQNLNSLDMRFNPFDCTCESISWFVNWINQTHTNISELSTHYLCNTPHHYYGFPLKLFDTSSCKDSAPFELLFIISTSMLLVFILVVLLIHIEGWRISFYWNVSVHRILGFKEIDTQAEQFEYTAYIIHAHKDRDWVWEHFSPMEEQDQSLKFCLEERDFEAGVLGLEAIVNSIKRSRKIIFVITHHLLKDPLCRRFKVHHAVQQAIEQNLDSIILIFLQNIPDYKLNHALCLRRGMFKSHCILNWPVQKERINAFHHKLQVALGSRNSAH
Method: (§1) Agonists specific to TLR1/TLR2 (Pam3CSK4), TLR2/TLR6 (FSL-1), TLR3 (Poly I:C), TLR7 (imiquimod), and TLR8 (TL8-506) were purchased from InvivoGen Ltd. (Hong-Kong, China), and a TLR4-specific agonist (LPS from E. coli O111:B4) was purchased from Sigma-Aldrich, Inc. For TLR9-specific stimulation, class C CpG-ODN (ODN2395, 5′-TCGTCGTTTTCGGCGCGCGCCG-3′) having full phosphorothioate backbone modification was synthesized (Bioneer, Inc., Daejeon, Korea). All TLR agonists were dissolved in deionized water and applied to a culture media for TLR activation. The cells were treated with test compounds or a control medium for 1 hour, and then stimulated with a TLR agonist for 4 hours, or 24 hours in the case of poly(I:C), and the cytokine secretion was monitored.
RAW 264.7 or differentiated THP-1 cell lines were seeded onto a 96-well culture plate at a density of 2×10^4 cells/well. The cells were treated with test compounds for 1 hour followed by the stimulation with TLR agonists for 4 hours. The supernatant was transferred to pre-coated assay plates, and the secretion levels of mouse and human TNF-α were measured by respective ELISA kits (Invitrogen, Carlsbad, CA, USA). […] Absorbance was measured by a microplate reader spectrophotometer (Molecular Devices, Inc., San Jose, CA, USA), and data was interpolated from a standard curve using SoftMax Pro 5.3 software (Molecular Devices, Inc.). […]

TLR9 = molecular target: T2, TLR9 (Mus musculus, UniProt Q9EQU3); test: TLR9-mediated TNF-α secretion (ODN2395 stimulation), ELISA; format: cell-based, murine
T2 construct: endogenous in cells; host or cells: RAW 264.7
T2 sequence (Q9EQU3 26-1032): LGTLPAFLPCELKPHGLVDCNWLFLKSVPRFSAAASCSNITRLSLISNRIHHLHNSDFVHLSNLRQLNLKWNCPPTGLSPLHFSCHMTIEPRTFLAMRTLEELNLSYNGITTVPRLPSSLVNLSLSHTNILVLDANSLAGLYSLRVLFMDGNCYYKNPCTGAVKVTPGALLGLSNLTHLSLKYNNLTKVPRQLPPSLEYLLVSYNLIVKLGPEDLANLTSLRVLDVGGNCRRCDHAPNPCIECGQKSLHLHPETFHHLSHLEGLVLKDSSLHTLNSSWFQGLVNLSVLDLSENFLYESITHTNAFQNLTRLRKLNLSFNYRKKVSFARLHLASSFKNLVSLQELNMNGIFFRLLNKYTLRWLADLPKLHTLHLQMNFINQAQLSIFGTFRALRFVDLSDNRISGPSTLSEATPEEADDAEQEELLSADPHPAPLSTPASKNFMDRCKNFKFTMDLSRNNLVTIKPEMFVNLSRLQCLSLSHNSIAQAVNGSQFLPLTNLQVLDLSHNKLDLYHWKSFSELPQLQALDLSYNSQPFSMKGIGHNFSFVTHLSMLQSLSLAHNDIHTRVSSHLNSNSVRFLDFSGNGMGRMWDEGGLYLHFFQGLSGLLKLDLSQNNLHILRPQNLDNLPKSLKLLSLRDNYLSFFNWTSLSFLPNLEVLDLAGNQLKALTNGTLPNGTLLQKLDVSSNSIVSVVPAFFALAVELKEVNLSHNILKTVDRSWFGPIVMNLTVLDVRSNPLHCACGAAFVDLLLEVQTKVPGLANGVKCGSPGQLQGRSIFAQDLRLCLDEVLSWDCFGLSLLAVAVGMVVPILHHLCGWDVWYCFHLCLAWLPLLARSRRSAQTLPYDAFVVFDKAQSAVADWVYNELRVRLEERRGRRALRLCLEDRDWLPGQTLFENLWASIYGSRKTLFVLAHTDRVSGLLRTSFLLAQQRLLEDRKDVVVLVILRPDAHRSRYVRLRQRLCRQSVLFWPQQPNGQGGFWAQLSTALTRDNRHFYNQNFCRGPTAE
Method: as §1
RAW 264.7 or differentiated THP-1 cell lines were seeded onto a 96-well culture plate at a density of 2×10^4 cells/well. The cells were treated with test compounds for 1 hour followed by the stimulation with TLR agonists for 4 hours. The supernatant was transferred to pre-coated assay plates, and the secretion levels of mouse and human TNF-α were measured by respective ELISA kits (Invitrogen, Carlsbad, CA, USA). All experiments were performed according to the manufacturer's instructions. Absorbance was measured by a microplate reader spectrophotometer (Molecular Devices, Inc., San Jose, CA, USA), and data was interpolated from a standard curve using SoftMax Pro 5.3 software (Molecular Devices, Inc.).
In order to evaluate the antagonistic effect of each compound on TLR7/TLR9 through ELISA (enzyme-linked immunosorbent assay), RAW 264.7 cells were pretreated with the eight compounds followed by the stimulation with a TLR7-specific agonist (imiquimod, 3.61 μM) or with a TLR9-specific agonist (ODN2395, 0.5 μM). […] Since the two ligands had no agonistic effect per se (FIG. 3B), the increased cytokine production may be due to cell activation (or non-specific cellular stress) by co-treatment. Consequently, TIC10 was selected as the most suitable lead for further optimization to improve the inhibitory potency against both TLR7 and TLR9.

Structure (SMILES): COc1ccc(CNc2ncc(-c3ccc4c(c3)OCO4)n2C)c(OC)c1 [TIC10-7, 5-(2H-1,3-benzodioxol-5-yl)-N-[(2,4-dimethoxyphenyl)methyl]-1-methyl-1H-imidazol-2-amine]
- TLR3-mediated TNF-α secretion (TLR3): moderately reduced
- TLR9-mediated TNF-α secretion (TLR9; RAW 264.7, 10 or 20 μM, ODN2395 (receptor specificity, FIG. 6)): moderately reduced
- inhibitory efficacy on TLR9-mediated TNF-α secretion (TLR9; RAW 264.7, 10 or 50 μM, ODN2395 (FIG. 4A)): improved inhibitory efficacy compared to TIC10; also recorded: significant reduction
- IC50 (TLR9; RAW 264.7, ODN2395 (FIG. 4C)): 6.71 µM
